This assay concerns subjects with active rheumatoid arthritis. Description: Pain evaluation in rheumatoid arthritis human clinical trial (pain NRS). The assay is classed as in vivo. The protocol:
Compound A was evaluated in a multicenter, randomized, double-blind, placebo-controlled, parallel-group study in subjects with active rheumatoid arthritis. Subjects were randomized to receive orally placebo or an amount of monohydrochloride Compound A sufficient to provide 50 mg, 100 mg, 150 mg, or 200 mg of free form, once daily for 12 weeks.
Pain was evaluated using a Numerical Rating Scale (NRS) by subjects. The pain NRS represents the severity of their arthritis pain during the past 3 days using an 11-point scale from 0 (no pain) to 10 (maximum pain). An evaluation was made of how much NRS decreased from baseline NRS after drug administration.
Data from EOT (end of treatment), at 2 weeks, and at 12 weeks was obtained. EOT is a measurement point generally used in clinical studies. In a 12-week study, it refers to all analysis at the 12-week time point. However, since some subjects will have discontinued the study midway, the data at the time of discontinuation is treated as the EOT for these subjects (for example, data for week 8 is used as EOT for subjects who discontinued in week 8). 2-week (subjects who completed 2 weeks in full) and 12-week (subjects who completed 12 weeks in full) data are also presented.
Change in pain NRS was evaluated in two subgroups of patients, those with higher baseline pain levels (median baseline pain NRS≥8.0) and those with lower baseline pain levels (median baseline pain NRS<8.0). […] Although the magnitude of decrease in pain NRS was different between lower and higher baseline pain NRS subgroups, both subgroups ultimately achieved a pain NRS score of approximately 4.

Where [1] appears, read: rheumatoid arthritis subjects, 50-200 mg oral once daily.

Consider `C[C@@H](C(=O)N(C)c1ccc2cc(-c3n[nH]c4c3CCC(C)(C)C4)[nH]c2c1)N1CCOCC1` [Compound A, N-[2-(6,6-dimethyl-4,5,6,7-tetrahydro-1H-indazol-3-yl)-1H-indol-6-yl]-N-methyl-(2S)-2-(morpholin-4-yl)propanamide], for which the “pain NRS score ultimately achieved” value (both lower (<8.0) and higher (≥8.0) baseline pain NRS subgroups, 50-200 mg oral once daily for 12 weeks) is “approximately 4”. Also, under setting [1], the “duration of anti-pain effects (long-lasting)” value is 12 weeks and the “time to anti-pain effects (rapid)” value is reported as at most 2 weeks. Also, the “pain in subjects having severe pain” value (subjects having pain greater than or equal to 8 on the NRS scale) is reported as “reduce pain”. The “decrease in pain NRS by baseline pain subgroup” value (subjects with higher baseline pain levels (NRS≥8.0) versus lower (NRS<8.0)) is recorded as “Larger decreases in pain NRS were observed in subjects that began treatment with higher baseline pain levels”.

These data come from patent publication US11464782B2, “Method of treating pain or interstitial cystitis using indole compound” (Japan Tobacco Inc., priority 2018, dated 2022).
